According to PubChem BioAssay (NCI):
Values joined by “and” are separate entries in the source; they are usually repeats but may differ in a detail not shown here. Equal entries are not always repeated.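 Compound exposure: 48 hours, 5 concentrations, 96-well plates. GI50 = concentration required for 50% inhibition of growth. At the TGI there is no net growth.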

Columns and labels:
Test in all cases: NCI-60 cell line screen, 48 h
SK-MEL-2 melanoma = system: SK-MEL-2 melanoma
NCI-H522 lung = system: NCI-H522 lung
MOLT-4 leukemia = system: MOLT-4 leukemia
NCI-H460 lung = system: NCI-H460 lung
SNB-75 CNS = system: SNB-75 CNS
K-562 leukemia = system: K-562 leukemia
SW-620 colon = system: SW-620 colon
UACC-62 melanoma = system: UACC-62 melanoma
HOP-92 NSCLC = system: HOP-92 NSCLC
BT-549 breast = system: BT-549 breast

| SMILES | TGI (SK-MEL-2 melanoma) [µM] | TGI (NCI-H522 lung) [µM] | TGI (MOLT-4 leukemia) [µM] | TGI (NCI-H460 lung) [µM] | TGI (SNB-75 CNS) | TGI (K-562 leukemia) [µM] | TGI (SW-620 colon) [µM] | TGI (UACC-62 melanoma) [µM] | TGI (HOP-92 NSCLC) [µM] | TGI (BT-549 breast) [µM] | GI50 (SNB-75 CNS) [µM] |
| --- | --- | --- | --- | --- | --- | --- | --- | --- | --- | --- | --- |
| COc1ccc(C2c3cc4c(cc3OC(N3CCCCC3)C2C)OCO4)cc1 (stereo not given) | > 100 | > 100 | > 100 | > 100 | > 100 µM | > 100 | > 100 | > 100 | – | – | – |
| c1ccc(C2=C(c3ccccc3)P(c3ccccc3)C2)cc1 (stereo not given) | > 100 | > 100 | > 100 | > 100 | > 100 µM | – | > 100 | – | > 100 | – | – |
| COc1ccc2c(c1)CC[C@@H]1[C@@H]2CC[C@]2(C)C(=O)/C(=C/c3cc(OC)c(OC)c(OC)c3)C[C@@H]12 | 41.6 | – | > 100 | > 100 | 38.9 µM | – | > 100 | > 100 | 45.4 | 63.9 | – |
| N#Cc1c(N2CCN(c3ccc([N+](=O)[O-])cc3)CC2)[n+](=O)c2ccc(Cl)cc2n1[O-] | 8.54 | 2.36 | 8.52 | 3.7 | > 27.9 µM | > 100 | 1.81 | – | – | 1.61 | – |
| O=C1/C(=C/c2ccco2)NC(=S)N1CN1CCOCC1 | > 100 | – | > 100 | – | > 100 µM | > 100 | > 100 | > 100 | > 100 | – | – |
| CCS(=O)(=O)c1c2cc(OC)ccc2nc2ccc(OC)cc12 | > 100 | > 100 | > 100 | > 100 | > 100 µM | > 100 | > 100 | > 100 | > 100 | – | – |
| COc1cc(/C=C/C(=O)OC[C@H](Br)[C@H](OC(C)=O)c2ccc3c(c2)OCO3)cc(OC)c1OC | > 100 | > 100 | > 100 | – | – | > 100 | > 100 | > 100 | > 100 | > 100 | – |
| O=C(O)/C=C/C(=O)O | > 100 | > 100 | > 100 | > 100 | > 100 µM | > 100 | > 100 | – | > 100 | – | – |
| Cn1ccc(C(=O)NCCCCCNC(=O)c2ccn(C)c(=O)c2O)c(O)c1=O | > 100 | > 100 | – | > 100 | – | – | > 100 | > 100 | > 100 | > 100 | – |
| CCOC12SC(=Nc3ccc(C)cc3)NN1C(=S)N(C)N=C2C (stereo not given) | – | > 100 | > 100 | > 100 | > 100 µM | > 100 | > 100 | > 100 | > 100 | – | – |
| COc1ccc2c(c1)-c1nn(CCN(C)C)c3ccc(C(=O)NCCCN(C)CCCNC(=O)c4ccc5c6c(nn5CCN(C)C)-c5cc(OC)ccc5Nc46)c(c13)N2 | 0.25 | 0.273 | 0.0653 | 1.11 | 0.393 µM | 1.14 | 1.54 | 0.23 | – | 0.948 | – |
| O=C(/C=C/c1ccccc1O)/C=C/c1ccccc1O | 23.1 | – | > 100 | 3.08 | 19.5 µM | > 100 | 4.36 | 3.31 | 4.87 | 3.28 | – |
| COc1cc(C(SCc2ccccc2)SCc2ccccc2)ccc1O | > 10 | > 10 | > 10 | > 10 | > 10 µM | > 10 | > 10 | > 10 | > 10 | – | – |
| Cc1n(CC(=O)c2ccccc2)nc2sc(N)n[n+]12 | > 100 | > 100 | > 100 | > 100 | > 100 µM | > 100 | > 100 | 37.4 | – | > 100 | – |
| Cc1ccc2nc(Cl)c(/C=N/N3C(=O)/C(=C/c4ccc(N(C)C)cc4)N=C3c3ccccc3)cc2c1 | 98.7 | – | 68.5 | > 100 | > 100 µM | > 100 | > 100 | > 100 | > 100 | > 100 | – |
| CC[C@@H]1CC[C@@H]2[C@H](CC[C@]3(C)[C@@H](OS(=O)(=O)c4ccc(C)cc4)CC[C@@H]23)[C@H]1CO | – | > 100 | > 100 | > 100 | > 100 µM | > 100 | > 100 | – | > 100 | > 100 | – |
| CC1(C)[C@@H]2C[C@H]1C(Cc1cccc(C[C@H]3c4cc(-c5ccccn5)ncc4[C@H]4C[C@@H]3C4(C)C)c1)c1cc(-c3ccccn3)ncc12 (stereo not given in full) | > 100 | > 56.7 | 1.91 | 12 | > 100 µM | > 100 | > 45.6 | > 21 | – | > 93.5 | – |
| OCC(O)C(O)C(O)C(/C=N\Nc1ncnc2ccc(Br)cc12)=N/Nc1ncnc2ccc(Br)cc12 (stereo not given) | > 100 | 54.9 | > 100 | – | > 100 µM | > 100 | > 100 | – | > 100 | – | – |
| COc1cc2c(cc1Cl)n([O-])c(C#N)c(N1CCN(c3ccc([N+](=O)[O-])cc3)CC1)[n+]2=O | > 100 | 41.6 | > 68 | > 100 | > 70.6 µM | > 100 | > 100 | > 72.9 | – | > 100 | – |
| Nc1nc2cc(CNc3ccc(C(=O)NC(CCC(=O)O)C(=O)O)cc3)ccc2nc1-c1ccccc1 (stereo not given) | > 10 | > 10 | > 10 | > 10 | > 10 µM | > 10 | > 10 | > 10 | – | > 10 | – |
| COc1nc2[nH]ccc2c(=O)n1C | > 100 | – | > 100 | > 100 | > 100 µM | > 100 | > 100 | – | > 100 | – | – |
| c1ccc(Nc2nnc(-c3nsc4ccccc34)o2)cc1 | > 100 | – | > 100 | > 100 | 78.4 µM | > 100 | > 100 | > 100 | > 100 | – | – |
| CN(C)CC(NC(NCS)C(=O)NCCNc1ccc(NCCNC(=O)C(NCS)NC(CN(C)C)OCCl)c2c1C(=O)c1c(O)ccc(O)c1C2=O)OCCl (stereo not given) | 2.99 | – | – | 0.944 | 1.77 µM and 0.99 µM | – | 1.25 | 1.6 | – | – | 0.0387 |
| COc1ccc(/C=C2\CN(C)Cc3c2[nH]c(=O)c(C#N)c3-c2ccc(OC)cc2)cc1 | > 100 | > 100 | > 100 | > 100 | – | > 100 | > 100 | > 100 | > 100 | > 100 | – |
